# Reference: patent publication US10738031B2, “N-[(heteroaryloxy)propanyl]heteroaryl carboxamides as antagonists of orexin subtype 1 receptor activity” (Boehringer Ingelheim International GmbH, priority 2016, dated 2020)
# Tests used:
# human orexin 2 receptor = biological target: T1, human orexin 2 receptor (Homo sapiens, UniProt O43614); assay: Assay B: OX2R IP1 (in vitro OX2R potency); format: cell-based; settings: Table 3; 0.5 nM Orexin A concentration
# T1 construct: stably expressing the full-length human orexin 2 receptor; expressed in transfected cells; host or cells: CHO-K1 (CHO-K1/hOX2), co-expressing aequorin
# T1 sequence (O43614 1-444): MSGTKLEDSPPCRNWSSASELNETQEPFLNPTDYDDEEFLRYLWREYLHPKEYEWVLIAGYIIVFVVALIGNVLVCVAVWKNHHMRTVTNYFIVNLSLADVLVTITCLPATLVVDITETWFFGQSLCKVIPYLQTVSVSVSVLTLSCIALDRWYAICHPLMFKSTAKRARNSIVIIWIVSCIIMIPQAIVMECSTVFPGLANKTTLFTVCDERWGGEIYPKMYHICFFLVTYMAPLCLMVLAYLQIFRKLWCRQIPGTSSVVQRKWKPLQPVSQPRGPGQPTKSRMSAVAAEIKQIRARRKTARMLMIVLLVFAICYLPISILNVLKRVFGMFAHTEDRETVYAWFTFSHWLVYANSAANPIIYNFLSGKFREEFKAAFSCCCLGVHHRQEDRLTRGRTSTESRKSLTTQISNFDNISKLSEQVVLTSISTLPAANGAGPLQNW
# From the text: Activation of the orexin receptors expressed in cell lines results in an increase in intracellular IP3 concentration. IP1, a downstream metabolite of IP3, accumulates in cells following receptor activation and is stable in the presence of LiCl. Using Homogeneous Time-Resolved Fluorescence technology with Lumi4-Tb cryptate (commercially available from Cisbio Bioassay.) and a suitable fluorescence plate reader. This functional response is detectable and quantifiable as described in Trinquet et al. Anal. […] Curr. Chem. Genomics 2009, 3, 22-32. This technique is used to characterize pharmacological modification of the orexin receptors. B. In Vitro Testing of OX2R Potency: OX2R IP1 IP1 measurements are performed in CHO-K1 cells stably expressing the full-length human orexin 2 receptor and the aequorin photoprotein. Cells are cultivated in Ham's nutrient mixture F12 medium with 10% fetal calf serum, in a 37° C., 95% humidity and 5% CO2 incubator. The CHO-K1/hOX2 cell mass is expanded to larger cell numbers. The cells are obtained as frozen cells in cryo-vials and stored until use at -150° C. The viability of the cells after thawing is >90%. In preparation for the assay, 24 hours before the assay, the cells are thawed at 37° C. and immediately diluted with cell culture medium. After centrifugation, the cell pellet is resuspended in medium and then distributed into the assay plates with a density of 5000 cells/25 μL per well. The plates are incubated for one hour at room temperature to reduce edge effects before they are incubated for 24 hours at 37° C./5% CO2. […] On the day of the assay, cells in the plate are washed twice with 60 μL assay buffer (20 μL buffer remained in the wells after washing), followed by adding 5 μL per well of compounds diluted in assay buffer. […] The assay plate is incubated for 60 minutes at 37° C. Then 5 μL per well of Anti-IP1-Cryptate Tb solution and 5 μL per well of IP1-d2 dilution are added to all well of the plate and the plate is incubated for a further 60 minutes light protected at room temperature. […] The ratio between the emission at 665 nm and 615 is calculated by the reader. […] AssayExplorer (Accelrys). In order to establish an agonist concentration independent parameter, Kb values are calculated using the following equation: […] Sci. 1993, 14(4), 110-112).
# [1] = Assay C: Human MST t1/2 (stability in human liver microsomes); format: in vitro ADME; settings: human liver microsomes
# human Orexin 1 receptor = biological target: T2, human Orexin 1 receptor (Homo sapiens, UniProt O43613); assay: Assay A: OX1R IP1 (in vitro OX1R potency); format: cell-based; settings: for Kb: Table 3
# T2 construct: stably expressing the full-length human Orexin 1 receptor; expressed in transfected cells; host or cells: CHO-K1 (CHO-K1/hOX1), co-expressing aequorin
# T2 sequence (O43613 1-425): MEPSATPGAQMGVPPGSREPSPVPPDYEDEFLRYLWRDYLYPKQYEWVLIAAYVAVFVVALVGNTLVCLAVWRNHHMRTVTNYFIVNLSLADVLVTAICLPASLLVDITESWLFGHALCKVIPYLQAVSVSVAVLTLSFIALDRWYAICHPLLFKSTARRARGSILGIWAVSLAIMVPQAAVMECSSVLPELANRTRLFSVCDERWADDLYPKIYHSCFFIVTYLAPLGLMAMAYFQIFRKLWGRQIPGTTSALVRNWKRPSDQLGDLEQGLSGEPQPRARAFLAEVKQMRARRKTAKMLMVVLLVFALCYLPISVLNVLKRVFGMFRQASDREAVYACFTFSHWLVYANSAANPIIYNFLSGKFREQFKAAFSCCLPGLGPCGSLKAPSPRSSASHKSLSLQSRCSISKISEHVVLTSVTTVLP
Structure (SMILES),Kb (human orexin 2 receptor) [nM],half-life [1] [min],OX2R Kb/OX1R Kb (human Orexin 1 receptor),Kb (human Orexin 1 receptor; Orexin A concentration 0.5 nM) [nM],Kb (human Orexin 1 receptor; Orexin A concentration 50 nM) [nM]
"CC[C@@H](CNc1ccc(C(F)(F)F)cn1)N(CC)C(=O)c1nc(C)ccc1-n1nccn1 [Ex 71 in WO2016/ 034882, reference compound]",27,4.5,,,
CCN(C(=O)c1cc(C(F)(F)F)cnc1-n1cccn1)[C@@H](C)COc1ccc(C(F)(F)F)cn1 [Example 3],212,83,177,1.2,1.2
CCN(C(=O)c1nc(C)ccc1-n1nccn1)[C@@H](C)COc1ccc(C(F)(F)F)cn1 [Example 5],59,25,393,,0.15
CCN(C(=O)c1cc(F)cnc1-n1nccn1)[C@@H](C)COc1ccc(C(F)(F)F)cn1 [Example 6],844,> 130,,1.2,1.5
CCN(C(=O)c1nc(C)ccc1-n1nccn1)[C@@H](C)COc1ccc(Cl)cn1 [Example 8],71,25,158,,0.45
CCN(C(=O)c1cnc(C)nc1-c1ccccc1)[C@@H](C)COc1cnc(C(F)(F)F)cn1 [Example 9],939,> 130,522,1.8,
CCN(C(=O)c1nc(C)ccc1-n1nccn1)[C@@H](C)COc1cnc(C(F)(F)F)cn1 [Example 10],749,> 130,300,2.5,
CCN(C(=O)c1cnc(C)nc1-c1ccccc1)[C@@H](C)COc1ncc(C(F)(F)F)cn1 [Example 11],1290,88,860,1.5,
CCN(C(=O)c1nc(C)ccc1-n1nccn1)[C@@H](C)COc1ncc(C(F)(F)F)cc1F [Example 12],206,13,268,0.77,
CCN(C(=O)c1ncccc1-c1ccccc1)[C@@H](C)COc1ncc(C(F)(F)F)cn1 [Example 15],705,96,157,4.5,
CCN(C(=O)c1ccc(C)nc1-n1nccn1)[C@@H](C)COc1ccc(C(F)(F)F)cn1 [Example 17],356,59,1618,,0.22
CCN(C(=O)c1ncc(C)cc1-c1ccn(C)n1)[C@@H](C)COc1ccc(C(F)(F)F)cn1 [Example 20],415,24,1660,,0.25
CCN(C(=O)c1cc(F)cnc1-n1nccn1)[C@@H](C)COc1ncc(C(F)(F)F)cc1F [Example 21],2700,> 130,817,3.3,
CCN(C(=O)c1cc(F)cnc1-n1nccn1)[C@@H](C)COc1ccc(Cl)cn1 [Example 22],1010,82,215,4.7,
CCN(C(=O)c1nc(C)ccc1-n1nccn1)[C@@H](C)COc1ncc(C(F)(F)F)cn1 [Example 23],2900,110,439,6.6,
CCN(C(=O)c1c(F)cncc1-n1cccn1)[C@@H](C)COc1ccc(C(F)(F)F)cn1 [Example 24],1070,29,167,6.4,
CCN(C(=O)c1ncccc1-n1nccn1)[C@@H](C)COc1ccc(C(F)(F)F)cn1 [Example 26],267,> 130,281,0.95,

Structure (SMILES),Kb (human orexin 2 receptor) [nM],half-life [1] [min],OX2R Kb/OX1R Kb (human Orexin 1 receptor),Kb (human Orexin 1 receptor; Orexin A concentration 0.5 nM) [nM],Kb (human Orexin 1 receptor; Orexin A concentration 50 nM) [nM]
CCN(C(=O)c1cc(C)cnc1-c1ccn(C)n1)[C@@H](C)COc1ccc(C(F)(F)F)cn1 [Example 27],134,31,,0.87,0.69
CCN(C(=O)c1ccc(C(F)(F)F)nc1-c1ccn(C)n1)[C@@H](C)COc1ccc(C(F)(F)F)cn1 [Example 28],705,11,353,2,
CCN(C(=O)c1ccncc1-c1ccn(C)n1)[C@@H](C)COc1ccc(C(F)(F)F)cn1 [Example 29],1600,11,184,8.7,
CCN(C(=O)c1ccc(C)nc1-n1nccn1)[C@@H](C)COc1ncc(C(F)(F)F)cn1 [Example 30],3590,> 130,641,5.6,
CCN(C(=O)c1ccc(OC)nc1-c1ccn(C)n1)[C@@H](C)COc1ccc(C(F)(F)F)cn1 [Example 32],106,12,707,,0.15
CCN(C(=O)c1ccc(C)nc1-n1nccn1)[C@@H](C)COc1cnc(C(F)(F)F)cn1 [Example 33],3280,> 130,421,7.8,
CCN(C(=O)c1ncccc1-c1ccn(C)n1)[C@@H](C)COc1ccc(C(F)(F)F)cn1 [Example 34],285,81,190,1.5,
CCN(C(=O)c1cc(F)cnc1-c1ncccn1)[C@@H](C)COc1ncc(C(F)(F)F)cc1F [Example 35],3250,> 130,706,4.6,
CCN(C(=O)c1cnccc1-n1nccn1)[C@@H](C)COc1ccc(C(F)(F)F)cn1 [Example 36],240,15,240,1,
CCN(C(=O)c1ncc(F)cc1-c1ccn(C)n1)[C@@H](C)COc1ccc(C(F)(F)F)cn1 [Example 37],802,24,243,3.3,
CCN(C(=O)c1cc(OC)ncc1-c1ccn(C)n1)[C@@H](C)COc1ccc(C(F)(F)F)cn1 [Example 38],323,12,135,2.4,
CCN(C(=O)c1ccncc1-n1cccn1)[C@@H](C)COc1ccc(C(F)(F)F)cn1 [Example 40],1560,10,120,13,
CCN(C(=O)c1cnccc1-n1nccn1)[C@@H](C)COc1ncc(C(F)(F)F)cc1F [Example 42],483,13,210,2.3,
CCN(C(=O)c1cc(OC)cnc1-n1nccn1)[C@@H](C)COc1ccc(Cl)cn1 [Example 43],325,110,171,1.9,
CCN(C(=O)c1cccnc1-n1nccn1)[C@@H](C)COc1ncc(C(F)(F)F)cc1F [Example 44],1210,> 130,289,4.2,
CCN(C(=O)c1cc(F)cnc1-c1ncccn1)[C@@H](C)COc1cnc(C(F)(F)F)cn1 [Example 45],6650,> 130,332,20,
